The subject of assay [1] is EBP (zymostenol accumulation in EpiSC-derived OPCs). The assay can be described thus: GC/MS-based sterol profiling, zymostenol accumulation in OPCs. It is filed as cell-based, mouse. The note with it: Mus musculus, 24 h, EpiSC-derived OPCs, 24 hr treatment, 8 doses from 0.15 nM to 333 nM; read-out: Zymostenol GCMS EC50. The protocol:
To assess effects of treatments on OPCs, all treatments were assayed in two or more independent platings of epiblast stem cell-derived OPCs ([…]-derived OPCs were obtained using in vitro differentiation protocols and culture conditions described previously (Najm et al, 2011, Nature Methods). OPCs were expanded and frozen down in aliquots. OPCs were thawed into growth conditions for at least one passage before use in further assays. Sterols were monitored using a modified Folch wash protocol (Hubler et al, 2018, Nature). EpiSC-derived OPCs were plated at 100,000 cells per well in PO- and laminin-coated 96-well plates in N2B27 media without growth factors. After 24 hours, cells were rinsed with saline and plates were frozen. Cholesterol-d7 standard was then added to each well before drying under nitrogen stream and derivatization with 55 μl of bis(trimethylsilyl) trifluoroacetamide. After derivatization, 2 μl were analyzed by gas chromatography/mass spectrometry using an Agilent 5973 Network Mass Selective Detector equipped with a 6890 gas chromatograph system and a HP-5MS capillary column (30 m×0.25 mm×0.25 mm). Samples were analyzed in full scan mode using electron impact ionization; ion fragment peaks were integrated to calculate sterol abundance, and quantitation was relative to cholesterol-d7. […] All standards were obtained from Avanti Polar Lipids unless otherwise indicated. Calibration curves were generated by injecting varying concentrations of sterol standards and maintaining a fixed amount of cholesterol-D7. For normalized zymostenol accumulation results, the total amount of zymostenol measured after drug treatment was divided by the total amount of zymostenol accumulated after 24 hr treatment with 100 nM positive control reference.

The target of assay [2] is human emopamil binding protein and human 7-dehydrocholesterol reductase co-expressing cells (hEBP-DHCR7 membrane) (Homo sapiens (Human), UniProt Q15125). The assay can be described thus: Radioligand filter binding assay on hEBP-DHCR7 membrane. The note with it: [3H]-(S)-6-(2-Methyl-3-(6-(trifluoromethyl)pyridin-3-yl)propyl)-2-thia-6-azaspiro[3.4]octane 2,2-dioxide radioligand, HEK293 membrane co-expressing hEBP and hDHCR7. The protocol: Membrane Preparation: human emopamil binding protein and human 7-dehydrocholesterol reductase co-expressing cells were generated by transient transfecting host human embryonic kidney (HEK) 293 cells with 2 DNA constructs containing each protein's coding sequence. Cells were suspension cultured at 37° C. with 5% CO2 in […] 293 Expression Medium (Thermofisher). Whole cell membrane was prepared by harvesting the cell pellet, adding cold membrane buffer (50 mM Tris, pH7.5, lx Roche COMPLETE EDTA-free protease inhibitor cocktail) 10 times volume of the cell pellets weight, lysing cell pellet on ice by using Dounce homogenizer, spinning at 200 g 4° C. for 15 min, collecting supernatant and spinning again at 25000 g 4° C. for 50 min, transferring pellet to Dounce homogenizer, re-suspending pellet by homogenizing in membrane buffer on ice to reach ˜25 mg/mL, then keeping whole cell membrane aliquots at −80° C.
human emopamil binding protein and human 7-dehydrocholesterol reductase co-expressing cells (hEBP-DHCR7 membrane), sequence (Q15125 whole entry): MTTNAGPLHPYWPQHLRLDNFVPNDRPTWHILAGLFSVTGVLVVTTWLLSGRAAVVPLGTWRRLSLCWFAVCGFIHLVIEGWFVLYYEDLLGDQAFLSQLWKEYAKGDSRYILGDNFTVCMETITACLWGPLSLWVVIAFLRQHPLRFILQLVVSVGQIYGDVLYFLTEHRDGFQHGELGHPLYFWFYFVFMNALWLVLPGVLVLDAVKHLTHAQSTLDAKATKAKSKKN
Compounds were prepared in a 96-well U bottom plate using an Echo550 machine and 10 mM compound DMSO stock solution, followed by an 8-dose 5-fold serial dilutions protocol with final testing compound concentration ranging from 0.06 to 5000 nM, with DMSO back fill to 100 nL/well and n=2. […] The UniFilter-96 GF/B plates were pre-treated by adding 50 μl/well of 0.3% (v/v) PEI to UniFilter-96 GF/B plates. The plates were sealed and incubated at 4° C. for 3 hrs. Then, the plates were washed with ice-cold assay buffer 3 times. The radioligand binding assay was prepared by adding assay buffer diluted hEBP-DHCR7 membrane at 66.7 μg/ml×150 μl/well into the 96-well compound plate to reach 10 μg membrane per well. Then, the assay buffer diluted [3H]—(S)-6-(2-Methyl-3-(6-(trifluoromethyl)pyridin-3-yl)propyl)-2-thia-6-azaspiro[3.4] octane 2,2-dioxide was added at 25 nM×50 μl/well. Following this, the plate was centrifuged at 1000 rpm for 30 secs. The plate was then sealed and agitated at 600 rpm at 22° C. for 5 min, and then incubated at 22° C. for 3 hrs. The incubation was stopped by transferring the binding solution to the pre-treated UniFilter-96 GF/B plate, vacuum filtrated, and then washed four times with ice-cold assay buffer. Following this, the plates were dried at 37° C. for 45 min. The plates were then sealed at the bottom. 40 μl/well of scintillation cocktail was added to the plates. A MicroBeta2 microplate counter was then used to read the plate and analyze the data. For reference and test compounds, the results are expressed as % Inhibition, using the normalization equation: N=100−100×(U−C2)/(C1−C2), where U is the unknown value, C1 is the average of high controls, and C2 is the average value of low controls. The IC50 was determined by fitting percentage of inhibition as a function of compound concentrations with Hill equation using XLfit. Results are expressed as hEBP-DHCR7 Ki (uM) in Table 4. Ki was calculated as described above. The asterix (*) indicates an isolated isomer or isolated group of isomers, but that the stereochemistry has not been assigned.

pEC50, pKi: −log10 of the molar value.

One may read the pEC50 as the EC50 on a negative log10 scale, so that one unit is a factor of ten. Broadly, the pKi is the Ki on a negative log10 scale, so that one unit is a factor of ten. The low end stands for a high Ki, the high end for a low Ki. As to `CC(C)c1nc(C(F)(F)F)ccc1[C@H]1CC[C@@H](N2CCC3(C2)CS(=O)(=O)C3)CC1` [Compound 65B, 6-((1s,4s)-4-(2-isopropyl-6-(trifluoromethyl)pyridin-3-yl)cyclohexyl)-2-thia-6-azaspiro[3.4]octane 2,2-dioxide], the pEC50 in assay [1] was 8.55. Besides, in assay [2], the pKi was 8.10.

With `O=S1(=O)CC2(CCN([C@H]3CCCN(c4ccc(C(F)(F)F)nc4)C3)C2)C1` (single isomer, unassigned) [66B*], the pEC50 in assay [1] was 7.92. In assay [2], the negative-log Ki (pKi) was 7.21.

Turning to `CC(C)n1nc(C(F)(F)F)cc1[C@H]1CC[C@H](N2CCC[C@@]3(CCS(=O)(=O)C3)C2)CC1` (single isomer, unassigned) [91B*], the pEC50 in assay [1] was 7.22. The molecule also gave a pKi in assay [2] of 6.51.

In the case of `O=S1(=O)CC2(CCN([C@H]3CC[C@H](c4ccnc(C(F)(F)F)c4Cl)CC3)C2)C1` [Compound 92A, 6-((1r,4r)-4-(3-Chloro-2-(trifluoromethyl)pyridin-4-yl)cyclohexyl)-2-thia-6-azaspiro[3.4]octane 2,2-dioxide], the pEC50 in assay [1] is 7.44.

Consider `O=S1(=O)CC[C@@]2(CCCN([C@H]3CC[C@@H](c4ccc(C(F)(F)F)cn4)CC3)C2)C1` (single isomer, unassigned) [68A*], for which, in assay [1], the negative-log EC50 (pEC50) was 6.72.

For `O=S1(=O)CC2(CCN([C@@H]3CCC[C@H](c4ccc(C(F)(F)F)nc4)C3)C2)C1` (single isomer, unassigned) [54A*], the pEC50 in assay [1] was 7.21. The molecule also had a pKi in assay [2] of 7.68.

For the molecule `O=S1(=O)CC[C@]2(CCCN([C@H]3CC[C@@H](c4ccc(C(F)(F)F)cn4)CC3)C2)C1` (single isomer, unassigned) [68C*], in assay [1], the pEC50 is under 6.48.

Regarding `O=S1(=O)CC2(CCN([C@H]3CC[C@H](c4ccc(C(F)F)nc4)CC3)C2)C1` [Compound 67, 6-((1r,4r)-4-(6-(difluoromethyl)pyridin-3-yl)cyclohexyl)-2-thia-6-azaspiro[3.4]octane 2,2-dioxide], the pEC50 in assay [1] was 7.52. This molecule showed a pKi in assay [2] of 6.74.

In the case of `O=S1(=O)CC2(CCN([C@H]3CCC[C@@H](c4ccc(C(F)(F)F)nc4)C3)C2)C1` (single isomer, unassigned) [54C*], the pEC50 in assay [1] is under 6.48. Also, the pKi in assay [2] was 6.46.

On to `O=S1(=O)CC2(CCN([C@@H]3CCCN(c4ccc(C(F)(F)F)nc4)C3)C2)C1` (single isomer, unassigned) [66A*], for which the negative logarithm of the EC50 (pEC50) in assay [1] was under 6.48. In assay [2], this molecule gave a pKi of 5.70.

`O=S1(=O)CC2(CCN([C@H]3CC[C@@H](c4ncc(C(F)(F)F)cc4Cl)CC3)C2)C1` [Compound 48B, 6-((1s,4s)-4-(3-chloro-5-(trifluoromethyl)pyridin-2-yl)cyclohexyl)-2-thia-6-azaspiro[3.4]octane 2,2-dioxide]: the pEC50 in assay [1] is 7.85. The molecule also gave a pKi in assay [2] of 8.02.

As to `CC(C)n1nc(C(F)(F)F)cc1[C@H]1CCC[C@@H](N2CCC3(C2)CS(=O)(=O)C3)C1` (single isomer, unassigned) [61B*], the pEC50 in assay [1] was 7.00. Moreover, the pKi in assay [2] was 7.64.

With `Cc1nc(C(F)(F)F)ccc1[C@H]1CC[C@@H](N2CCC3(C2)CS(=O)(=O)C3)CC1` [Compound 51B, 6-((1s,4s)-4-(2-methyl-6-(trifluoromethyl)pyridin-3-yl)cyclohexyl)-2-thia-6-azaspiro[3.4]octane 2,2-dioxide], the negative-log EC50 (pEC50) in assay [1] is 8.23. The molecule further showed a negative logarithm of the Ki (pKi) in assay [2] of 7.85.

For `O=S1(=O)CC2(CCN([C@H]3CC[C@@H](c4cccc(C(F)(F)F)n4)CC3)C2)C1` [Compound 62A, 6-((1s,4s)-4-(6-(trifluoromethyl)pyridin-2-yl)cyclohexyl)-2-thia-6-azaspiro[3.4]octane 2,2-dioxide], the pEC50 in assay [1] is 7.35. Moreover, the pKi in assay [2] is 7.64.

For the molecule `O=S1(=O)CC2(CCN([C@H]3CC[C@@H](c4ccnc(C(F)(F)F)c4)CC3)C2)C1` [Compound 60B, 6-((1s,4s)-4-(2-(trifluoromethyl)pyridin-4-yl)cyclohexyl)-2-thia-6-azaspiro[3.4]octane 2,2-dioxide], the pEC50 in assay [1] was 7.07. Besides, the pKi in assay [2] is 7.68.

For `O=S1(=O)CC2(CCCN([C@H]3CC[C@H](c4ccnc(C(F)(F)F)c4)CC3)C2)C1` [Compound 93, 6-((1r,4r)-4-(2-(Trifluoromethyl)pyridin-4-yl)cyclohexyl)-2-thia-6-azaspiro[3.5]nonane 2,2-dioxide], the pEC50 in assay [1] is 7.92.

Consider `CC(C)[C@H]1CC(N2CCC3(C2)CS(=O)(=O)C3)CCN1c1ccc(C(F)(F)F)nc1` (stereo in doubt) [82C*, 6-((2R,4S)-2-isopropyl-1-(6-(trifluoromethyl)pyridin-3-yl)piperidin-4-yl)-2-thia-6-azaspiro[3.4]octane 2,2-dioxide], for which the pEC50 in assay [1] is under 6.48. For the same molecule, the pKi in assay [2] is 7.44.

Turning to `CC(C)[C@@H]1C[C@H](N2CCC3(C2)CS(=O)(=O)C3)CCN1c1ccc(C(F)(F)F)nc1` (stereo in doubt) [82D*, 6-((2S,4R)-2-isopropyl-1-(6-(trifluoromethyl)pyridin-3-yl)piperidin-4-yl)-2-thia-6-azaspiro[3.4]octane 2,2-dioxide], the pEC50 in assay [1] is under 6.48. The same molecule had a pKi in assay [2] of 7.00.

For the molecule `O=S1(=O)CC2(CCN([C@H]3CC[C@@H](c4ccc(F)c(F)c4)CC3)C2)C1` [Compound 70B, 6-((1s,4s)-4-(3,4-difluorophenyl)cyclohexyl)-2-thia-6-azaspiro[3.4]octane 2,2-dioxide], in assay [1], the pEC50 was 7.72. Further, the pKi in assay [2] is 8.17.

Regarding `O=S1(=O)CC[C@]2(CCCN([C@H]3CC[C@H](c4ccc(C(F)(F)F)nc4)CC3)C2)C1` (single isomer, unassigned) [71D*], the pEC50 in assay [1] was under 6.48.

As for `O=S1(=O)CC2(CCN([C@H]3CC[C@@H](c4ccnc(C(F)(F)F)c4Cl)CC3)C2)C1` [Compound 92B, 6-((1s,4s)-4-(3-chloro-2-(trifluoromethyl)pyridin-4-yl)cyclohexyl)-2-thia-6-azaspiro[3.4]octane 2,2-dioxide], in assay [1], the pEC50 is 8.28.

`O=S1(=O)CC[C@]2(CCCN([C@H]3CC[C@H](c4ccc(C(F)(F)F)cn4)CC3)C2)C1` (single isomer, unassigned) [68D*]: the pEC50 in assay [1] is 7.38.

Turning to `CC(C)n1nc(C(F)(F)F)cc1[C@H]1CC[C@H](N2CCC[C@]3(CCS(=O)(=O)C3)C2)CC1` (single isomer, unassigned) [91D*], the negative logarithm of the EC50 (pEC50) in assay [1] is 7.30.

Consider `O=S1(=O)CC[C@]2(CCCN([C@H]3CC[C@@H](c4ccc(C(F)(F)F)nc4)CC3)C2)C1` (single isomer, unassigned) [71C*], for which the pEC50 in assay [1] was 7.21.

`CC(C)n1nc(C(F)(F)F)cc1[C@H]1CC[C@@H](N2CCC[C@]3(CCS(=O)(=O)C3)C2)CC1` (single isomer, unassigned) [91C*]: in assay [1], the negative-log EC50 (pEC50) is 8.09.

For `O=S1(=O)CC[C@@]2(CCCN([C@H]3CC[C@H](c4ccc(C(F)(F)F)nc4)CC3)C2)C1` (single isomer, unassigned) [71B*], in assay [1], the pEC50 is 6.55.

The values above are taken from patent US20240398781A1, “SPIROCYCLIC CYCLIC MODULATORS OF CHOLESTEROL BIOSYNTHESIS AND THEIR USE FOR PROMOTING REMYELINATION” (GENENTECH, INC., priority 2021, published 2024).
